Test results published in patent EP3685668B1, “COMPOSITION COMPRISING ACIBENZOLAR-S-METHYL AS EFFECTIVE INGREDIENT FOR CONTROLLING BURSAPHELENCHUS XYLOPHILUS DISEASE AND METHOD FOR CONTROLLING BURSAPHELENCHUS XYLOPHILUS USING SAME” (Industry Foundation of Chonnam National University, priority 2017, dated 2019).

Columns and labels:
Experiment in all cases: qRT-PCR expression of induced resistance gene in pine tree callus
Assay type in all cases: cell-based
Antipeptide = conditions: 200 µg/mℓ; for Expression of induced resistance gene, Antipeptide: 24 hours
Protocol: (§1) For in vitro analysis of induced resistance, the expression of PR genes and other plant defense-related genes was determined, which are evolved in various defense mechanisms including induced resistance. The primers of sixteen induced resistance-related genes of pine tree used in this invention were listed in the below and elongation factor_1 alpha were used as a reference gene. [Table 4] The primer list of defense resistance-related genes
(§2) After the treatment with 200 µg / mℓ of candidates of the selected induced resistance material, expression of the induced resistance-related gene in pine callus was determined by qRT-PCR using the primer pairs of defense resistance-related genes in Table 4. As a candidate group of an induced resistance material in pine tree, acibenzolar-S-methyl (ASM), TDL (Tiadinil), ITL (Isotianil), PBZ (Probenzole), AZO (Azoxystrobin), VMA (Validamycin A), MeJA (Methyl jasmonate), BABA (DL-3-aminobutyric acid), 2,3-BDO (2,3-Butanediol), GABA (r-Aminobutyric acid), glucan (Glucan), ER (Ergosterol), and AZA (Azelaic acid) were used. For the in vitro analysis of the expression of induced resistance gene in pine callus, the selected induced resistance materials were applied with 500 µℓ of LM liquid medium on a surface of pine tree callus (100 mg) in 12-well microplate to give final concentration of 200 µg/mℓ. Then, the callus surface was sufficiently reacted for 24 hours with the candidate of pine tree induced resistance material by shaking at 50 rpm in a 25 °C shaking incubator under dark condition. RNAs were extracted from the callus after completion of the reaction with an induced resistance material, followed by synthesis of cDNAs. Then, by carrying out qRT-PCR, the expression of induced resistance genes was determined. [Table 5] Expression of induced resistance gene in pine tree callus by TDL, PBZ, ASM, ITL, AZO, VMA, glucan, and AZA
(§3) Based on the results of assay using young plants and gene expression by selected induce resistance materials, it seemed that acibenzolar-S-methyl had the most excellent effect. Thus, the following tests were carried out using acibenzolar-S-methyl only. Expression of the induced resistance genes at different culture time after the chemical treatment was examined. For the in vitro assay, LM medium containing pine tree callus was treated with acibenzolar-S-methyl at concentration of 200 µg / mℓ, followed by reaction for 1 day, 7 days, or 14 days in a 25°C shaking incubator under dark condition. RNAs were extracted from the callus after the reaction followed by synthesis of cDNAs. Then, by carrying out qRT-PCR, the expression of the induced resistance genes was determined. Depending on reaction time after the treatment, i.e., after 1 day, 7 days, or 14 days, the expression of the obtained induced resistance genes was examined. As a result of the in vitro callus assay depending on reaction time after the treatment with acibenzolar-S-methyl, the expression of the induced resistance-related genes is the highest at 1 day after the treatment with acibenzolar-S-methyl and gradually diminished over time, as it is shown in Table 7. In this regard, it is contemplated that the expression of genes acquired by acibenzolar-S-methyl is not maintained in highly expressed state until the pathogen invasion and just memorized with at minimum level so that the energy consumption by plant can be efficiently managed. [Table 7] Expression of induced resistance gene in pine tree callus by acibenzolar-S-methyl depending on reaction time
(§4) To have an in vitro assay according to different methods of treatment with acibenzolar-S-methyl, two separate treatment methods, i.e., surface treatment (spraying treatment) of pine tree callus and direct application of the induced resistance material to an LM medium containing pine tree callus, were performed. […]

Extensin = conditions: for Expression of induced resistance gene, Extensin: 24 hours
Protocol: as §1, §2, §3, §4

Heat shock 70 = conditions: for Expression of induced resistance gene, Heat shock 70: 24 hours
Protocol: as §1, §2, §3, §4

Hydroxyproline = conditions: for Expression of induced resistance gene, Hydroxyproline: 24 hours
Protocol: as §1, §2, §3, §4

Metallothionein = conditions: for Expression of induced resistance gene, Metallothionein: 24 hours
Protocol: as §1, §2, §3, §4

PR_10 family = conditions: for Expression of induced resistance gene, PR_10 family: 24 hours
Protocol: as §1, §2, §3, §4

PR_1b family = conditions: 200 µg/mℓ; for Expression of induced resistance gene, PR_1b family: 24 hours
Protocol: as §1, §2, §3, §4

[1] = Direct supplying as a medium component
[2] = 200 µg/mℓ, Direct supplying as a medium component
[3] = concentration series, 200 µg/mℓ

CSC(=O)c1cccc2nnsc12 [ASM, acibenzolar-S-methyl]
Expression of induced resistance gene, Antipeptide (Antipeptide): 1.83
Expression of induced resistance gene, Antipeptide (Antipeptide; [1]): 7.21
Expression of induced resistance gene, Antipeptide (Antipeptide; Spraying): 1.83
Gene expression level, Antipeptide (Antipeptide; After 1 day): 10.63
Gene expression level, Antipeptide (Antipeptide; After 7 days): 1.28
Gene expression level, Antipeptide (Antipeptide; After 14 days): 0.58
Gene expression level, Antipeptide (Antipeptide; concentration series): 5.352
Expression of induced resistance gene, Extensin (Extensin; 200 µg/mℓ): 2.1
Expression of induced resistance gene, Extensin (Extensin; [2]): 2.27
Expression of induced resistance gene, Extensin (Extensin; 200 µg/mℓ, Spraying): 2.1
Gene expression level, Extensin (Extensin; 200 µg/mℓ, After 1 day): 9.99
Gene expression level, Extensin (Extensin; 200 µg/mℓ, After 7 days): 1.23
Gene expression level, Extensin (Extensin; 200 µg/mℓ, After 14 days): 0.33
Gene expression level, Extensin (Extensin; concentration series, 2 µg/mℓ): 0.9012
Gene expression level, Extensin (Extensin; concentration series, 20 µg/mℓ): 1.385
Gene expression level, Extensin (Extensin; [3]): 1.693
Expression of induced resistance gene, Heat shock 70 (Heat shock 70; 200 µg/mℓ): 1.75
Expression of induced resistance gene, Heat shock 70 (Heat shock 70; [2]): 10.06
Expression of induced resistance gene, Heat shock 70 (Heat shock 70; 200 µg/mℓ, Spraying): 1.75
Gene expression level, Heat shock 70 (Heat shock 70; 200 µg/mℓ, After 1 day): 2.27
Gene expression level, Heat shock 70 (Heat shock 70; 200 µg/mℓ, After 7 days): 0.97
Gene expression level, Heat shock 70 (Heat shock 70; 200 µg/mℓ, After 14 days): 0.77
Gene expression level, Heat shock 70 (Heat shock 70; concentration series, 20 µg/mℓ): 23.26
Gene expression level, Heat shock 70 (Heat shock 70; [3]): 53.45
Expression of induced resistance gene, Hydroxyproline (Hydroxyproline; 200 µg/mℓ): 1.79
Expression of induced resistance gene, Hydroxyproline (Hydroxyproline; [2]): 7.89
Expression of induced resistance gene, Hydroxyproline (Hydroxyproline; 200 µg/mℓ, Spraying): 1.79
Gene expression level, Hydroxyproline (Hydroxyproline; 200 µg/mℓ, After 1 day): 10.06
Gene expression level, Hydroxyproline (Hydroxyproline; 200 µg/mℓ, After 7 days): 1.2
Gene expression level, Hydroxyproline (Hydroxyproline; 200 µg/mℓ, After 14 days): 0.32
Gene expression level, Hydroxyproline (Hydroxyproline; concentration series, 2 µg/mℓ): 3.138
Gene expression level, Hydroxyproline (Hydroxyproline; concentration series, 20 µg/mℓ): 4.438
Gene expression level, Hydroxyproline (Hydroxyproline; [3]): 4.627
Expression of induced resistance gene, Metallothionein (Metallothionein; 200 µg/mℓ): 0.11
Expression of induced resistance gene, Metallothionein (Metallothionein; [2]): 29.86
Expression of induced resistance gene, Metallothionein (Metallothionein; 200 µg/mℓ, Spraying): 0.11
Gene expression level, Metallothionein (Metallothionein; 200 µg/mℓ, After 1 day): 7.89
Gene expression level, Metallothionein (Metallothionein; 200 µg/mℓ, After 7 days): 0.41
Gene expression level, Metallothionein (Metallothionein; 200 µg/mℓ, After 14 days): 0.29
Gene expression level, Metallothionein (Metallothionein; concentration series, 2 µg/mℓ): 0.5946
Gene expression level, Metallothionein (Metallothionein; concentration series, 20 µg/mℓ): 0.79
Gene expression level, Metallothionein (Metallothionein; [3]): 0.9266
Expression of induced resistance gene, PR_10 family (PR_10 family; 200 µg/mℓ): 1.71
Expression of induced resistance gene, PR_10 family (PR_10 family; [2]): 10.63
Expression of induced resistance gene, PR_10 family (PR_10 family; 200 µg/mℓ, Spraying): 1.71
Gene expression level, PR_10 family (PR_10 family; 200 µg/mℓ, After 1 day): 8.57
Gene expression level, PR_10 family (PR_10 family; 200 µg/mℓ, After 7 days): 0.51
Gene expression level, PR_10 family (PR_10 family; 200 µg/mℓ, After 14 days): 0.64
Gene expression level, PR_10 family (PR_10 family; concentration series, 2 µg/mℓ): 0.8293
Gene expression level, PR_10 family (PR_10 family; concentration series, 20 µg/mℓ): 1.11
Gene expression level, PR_10 family (PR_10 family; [3]): 1.094
Expression of induced resistance gene, PR_1b family (PR_1b family): 2
Expression of induced resistance gene, PR_1b family (PR_1b family; [1]): 6.28
Expression of induced resistance gene, PR_1b family (PR_1b family; Spraying): 2
Gene expression level, PR_1b family (PR_1b family; After 1 day): 6.28
Gene expression level, PR_1b family (PR_1b family; After 7 days): 0.72
Gene expression level, PR_1b family (PR_1b family; After 14 days): 0.4
Gene expression level, PR_1b family (PR_1b family; concentration series): 0.9395
